Measurements as given in US10253002B2, “Compounds and methods of treating infections” (Neoculi Pty Ltd., priority 2013, dated 2019).
≈ marks a conversion by molar mass, not a printed value. Where two headings read alike, the source gives them in different places.

How the values were obtained:
[1] = tested on: Staphylococcus pseudintermedius isolates (MSSP and MRSP); experiment: MIC (CLSI), Example 6; format: cell-based
Method: Anti-staphylococcal compounds were then tested against all 23 isolates and minimum inhibitory concentrations (MIC) were determined according to standard protocols. After the MICs were determined, the minimum bactericidal concentrations were performed to determine if these compounds are bacteriostatic or bacteriocidal.

MRSA = experiment: Broth microdilution MIC, Example 7 (NCL812 and analogues); format: cell-based, Staphylococcus aureus
How it was run: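 Turbidity read visually and then at 600 nm defined the MIC (μg/ml), comparing drug-containing wells with a growth-control well lacking antimicrobial. Testing followed the CLSI broth microdilution method, in duplicate, using two strains per organism group.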

[2] = Staphylococcus pseudintermedius isolates

## CC1(C)S[C@@H]2[C@H](NC(=O)[C@H](N)c3ccccc3)C(=O)N2[C@H]1C(=O)O [Ampicillin]
[1]; [2]
  MIC50: 32 µg/mL (≈ 91.6 µM)
  MIC90: 128 µg/mL (≈ 366 µM)
  MIC range: 0.1 to 128 µg/mL
[1]; Staphylococcus pseudintermedius, Staphylococcus pseudintermedius isolates, read-out: MIC mode
  MIC: 128 µg/mL (≈ 366 µM)
[1]; Staphylococcus pseudintermedius, isolate S5P5, read-out: MIC
  MIC: 16 µg/mL (≈ 45.8 µM)
[1]; Staphylococcus pseudintermedius, isolate S6P6, read-out: MIC
  MIC: 64 µg/mL (≈ 183 µM)
[1]; Staphylococcus pseudintermedius, isolate S9P9, read-out: MIC
  MIC: 32 µg/mL (≈ 91.6 µM)
[1]; Staphylococcus pseudintermedius, isolate S10P10, read-out: MIC
  MIC: 64 µg/mL (≈ 183 µM)
[1]; Staphylococcus pseudintermedius, isolate S12P12, read-out: MIC
  MIC: 32 µg/mL (≈ 91.6 µM)
[1]; Staphylococcus pseudintermedius, isolate S13P13, read-out: MIC
  MIC: 0.25 µg/mL (≈ 0.715 µM)
[1]; Staphylococcus pseudintermedius, isolate S14P14, read-out: MIC
  MIC: 1 µg/mL (≈ 2.86 µM)
[1]; Staphylococcus pseudintermedius, isolate S15P15, read-out: MIC
  MIC: 4 µg/mL (≈ 11.4 µM)
[1]; Staphylococcus pseudintermedius, isolate S16P16, read-out: MIC
  MIC: 0.25 µg/mL (≈ 0.715 µM)
[1]; Staphylococcus pseudintermedius, isolate S17P17, read-out: MIC
  MIC: 1 µg/mL (≈ 2.86 µM)
[1]; Staphylococcus pseudintermedius, isolate S18P18, read-out: MIC
  MIC: 4 µg/mL (≈ 11.4 µM)
[1]; Staphylococcus pseudintermedius, isolate S19P19, read-out: MIC
  MIC: 0.5 µg/mL (≈ 1.43 µM)
[1]; Staphylococcus pseudintermedius, isolate S20P20, read-out: MIC
  MIC: 4 µg/mL (≈ 11.4 µM)
[1]; Staphylococcus pseudintermedius, isolate S21P21, read-out: MIC
  MIC: 0.1 µg/mL (≈ 0.286 µM)
[1]; Staphylococcus pseudintermedius, isolate S22P22, read-out: MIC
  MIC: 8 µg/mL (≈ 22.9 µM)
[1]; Staphylococcus pseudintermedius, isolate S23P23, read-out: MIC
  MIC: 32 µg/mL (≈ 91.6 µM)
[1]; isolate S1P1
  MIC: 128 µg/mL (≈ 366 µM)
[1]; isolate S3P3
  MIC: 128 µg/mL (≈ 366 µM)
[1]; isolate S4P4
  MIC: 128 µg/mL (≈ 366 µM)
[1]; isolate S7P7
  MIC: 128 µg/mL (≈ 366 µM)
[1]; isolate S8P8
  MIC: 128 µg/mL (≈ 366 µM)
[1]; isolate S11P11
  MIC: 128 µg/mL (≈ 366 µM)
MRSA; MRSA 610, Phase I, 2nd
  MIC: 128 µg/mL (≈ 366 µM)
MRSA; MRSA 713, Phase II, 1st
  MIC: 128 µg/mL (≈ 366 µM)
MRSA; MRSA 713, Phase II, 2nd
  MIC: 128 µg/mL (≈ 366 µM)
MRSA; MRSA 778, Phase II, 1st
  MIC: 128 µg/mL (≈ 366 µM)
MRSA; MRSA 778, Phase II, 2nd
  MIC: 128 µg/mL (≈ 366 µM)
MRSA; MRSA 823, Phase II, 1st
  MIC: 128 µg/mL (≈ 366 µM)
MRSA; MRSA 823, Phase II, 2nd
  MIC: 128 µg/mL (≈ 366 µM)
MRSA; MRSA 844, Phase I, 1st
  MIC: 128 µg/mL (≈ 366 µM)
MRSA; MRSA 844, Phase I, 2nd
  MIC: 128 µg/mL (≈ 366 µM)
MRSA; Staphylococcus aureus, MRSA, 24 h, read-out: MIC (μg/ml) at 24 hours, MRSA 1, isolate MRSA 1, 24 hours, 1st and 2nd replicate rows
  MIC: > 128 µg/mL
MRSA; Staphylococcus aureus, MRSA, 24 h, read-out: MIC (μg/ml) at 24 hours, MRSA 2, isolate MRSA 2, 24 hours, 1st and 2nd replicate rows
  MIC: 16 µg/mL (≈ 45.8 µM)
MRSA; Staphylococcus aureus, MRSA, MRSA 516, Phase I, 1st, read-out: MIC
  MIC: 32 µg/mL (≈ 91.6 µM)
MRSA; Staphylococcus aureus, MRSA, MRSA 516, Phase I, 2nd, read-out: MIC
  MIC: 32 µg/mL (≈ 91.6 µM)
MRSA; Staphylococcus aureus, MRSA, MRSA 516, Phase II, 1st, read-out: MIC
  MIC: 32 µg/mL (≈ 91.6 µM)
MRSA; Staphylococcus aureus, MRSA, MRSA 516, Phase II, 2nd, read-out: MIC
  MIC: 16 µg/mL (≈ 45.8 µM)
MRSA; Staphylococcus aureus, MRSA, MRSA 570, Phase I, 1st, read-out: MIC
  MIC: > 128 µg/mL
MRSA; Staphylococcus aureus, MRSA, MRSA 570, Phase I, 2nd, read-out: MIC
  MIC: > 128 µg/mL
MRSA; Staphylococcus aureus, MRSA, MRSA 570, Phase II, 1st, read-out: MIC
  MIC: > 128 µg/mL
MRSA; Staphylococcus aureus, MRSA, MRSA 570, Phase II, 2nd, read-out: MIC
  MIC: > 128 µg/mL
MRSA; Staphylococcus aureus, MRSA, MRSA 580, Phase I, 1st, read-out: MIC
  MIC: > 128 µg/mL
MRSA; Staphylococcus aureus, MRSA, MRSA 580, Phase I, 2nd, read-out: MIC
  MIC: > 128 µg/mL
MRSA; Staphylococcus aureus, MRSA, MRSA 580, Phase II, 1st, read-out: MIC
  MIC: > 128 µg/mL
MRSA; Staphylococcus aureus, MRSA, MRSA 580, Phase II, 2nd, read-out: MIC
  MIC: > 128 µg/mL
MRSA; Staphylococcus aureus, MRSA, MRSA 606, Phase I, 1st, read-out: MIC
  MIC: 32 µg/mL (≈ 91.6 µM)
MRSA; Staphylococcus aureus, MRSA, MRSA 606, Phase I, 2nd, read-out: MIC
  MIC: 32 µg/mL (≈ 91.6 µM)
MRSA; Staphylococcus aureus, MRSA, MRSA 606, Phase II, 1st, read-out: MIC
  MIC: 32 µg/mL (≈ 91.6 µM)
MRSA; Staphylococcus aureus, MRSA, MRSA 606, Phase II, 2nd, read-out: MIC
  MIC: 32 µg/mL (≈ 91.6 µM)
MRSA; Staphylococcus aureus, MRSA, MRSA 610, Phase II, 1st, read-out: MIC
  MIC: 32 µg/mL (≈ 91.6 µM)
MRSA; Staphylococcus aureus, MRSA, MRSA 610, Phase II, 2nd, read-out: MIC
  MIC: 32 µg/mL (≈ 91.6 µM)
MRSA; Staphylococcus aureus, MRSA, MRSA 616, Phase I, 1st, read-out: MIC
  MIC: 64 µg/mL (≈ 183 µM)
MRSA; Staphylococcus aureus, MRSA, MRSA 616, Phase I, 2nd, read-out: MIC
  MIC: 64 µg/mL (≈ 183 µM)
MRSA; Staphylococcus aureus, MRSA, MRSA 616, Phase II, 1st, read-out: MIC
  MIC: 64 µg/mL (≈ 183 µM)
MRSA; Staphylococcus aureus, MRSA, MRSA 616, Phase II, 2nd, read-out: MIC
  MIC: 64 µg/mL (≈ 183 µM)
MRSA; Staphylococcus aureus, MRSA, MRSA 622, Phase I, 1st, read-out: MIC
  MIC: 64 µg/mL (≈ 183 µM)
MRSA; Staphylococcus aureus, MRSA, MRSA 622, Phase I, 2nd, read-out: MIC
  MIC: 64 µg/mL (≈ 183 µM)
MRSA; Staphylococcus aureus, MRSA, MRSA 622, Phase II, 1st, read-out: MIC
  MIC: 32 µg/mL (≈ 91.6 µM)
MRSA; Staphylococcus aureus, MRSA, MRSA 622, Phase II, 2nd, read-out: MIC
  MIC: 32 µg/mL (≈ 91.6 µM)
MRSA; Staphylococcus aureus, MRSA, MRSA 698, Phase I, 1st, read-out: MIC
  MIC: 64 µg/mL (≈ 183 µM)
MRSA; Staphylococcus aureus, MRSA, MRSA 698, Phase I, 2nd, read-out: MIC
  MIC: 64 µg/mL (≈ 183 µM)
MRSA; Staphylococcus aureus, MRSA, MRSA 698, Phase II, 1st, read-out: MIC
  MIC: 8 µg/mL (≈ 22.9 µM)
MRSA; Staphylococcus aureus, MRSA, MRSA 698, Phase II, 2nd, read-out: MIC
  MIC: 8 µg/mL (≈ 22.9 µM)
MRSA; Staphylococcus aureus, MRSA, MRSA 713, Phase I, 1st, read-out: MIC
  MIC: > 128 µg/mL
MRSA; Staphylococcus aureus, MRSA, MRSA 713, Phase I, 2nd, read-out: MIC
  MIC: > 128 µg/mL
MRSA; Staphylococcus aureus, MRSA, MRSA 718, Phase I, 1st, read-out: MIC
  MIC: > 128 µg/mL
MRSA; Staphylococcus aureus, MRSA, MRSA 718, Phase I, 2nd, read-out: MIC
  MIC: > 128 µg/mL
MRSA; Staphylococcus aureus, MRSA, MRSA 718, Phase II, 1st, read-out: MIC
  MIC: 64 µg/mL (≈ 183 µM)
MRSA; Staphylococcus aureus, MRSA, MRSA 718, Phase II, 2nd, read-out: MIC
  MIC: 64 µg/mL (≈ 183 µM)
MRSA; Staphylococcus aureus, MRSA, MRSA 728, Phase I, 1st, read-out: MIC
  MIC: 64 µg/mL (≈ 183 µM)
MRSA; Staphylococcus aureus, MRSA, MRSA 728, Phase I, 2nd, read-out: MIC
  MIC: 64 µg/mL (≈ 183 µM)
MRSA; Staphylococcus aureus, MRSA, MRSA 728, Phase II, 1st, read-out: MIC
  MIC: 32 µg/mL (≈ 91.6 µM)
MRSA; Staphylococcus aureus, MRSA, MRSA 728, Phase II, 2nd, read-out: MIC
  MIC: 32 µg/mL (≈ 91.6 µM)
MRSA; Staphylococcus aureus, MRSA, MRSA 734, Phase I, 1st, read-out: MIC
  MIC: > 128 µg/mL
MRSA; Staphylococcus aureus, MRSA, MRSA 734, Phase I, 2nd, read-out: MIC
  MIC: > 128 µg/mL
MRSA; Staphylococcus aureus, MRSA, MRSA 734, Phase II, 1st, read-out: MIC
  MIC: 64 µg/mL (≈ 183 µM)
MRSA; Staphylococcus aureus, MRSA, MRSA 734, Phase II, 2nd, read-out: MIC
  MIC: 64 µg/mL (≈ 183 µM)
MRSA; Staphylococcus aureus, MRSA, MRSA 741, Phase I, 1st, read-out: MIC
  MIC: 8 µg/mL (≈ 22.9 µM)
MRSA; Staphylococcus aureus, MRSA, MRSA 741, Phase I, 2nd, read-out: MIC
  MIC: 8 µg/mL (≈ 22.9 µM)
MRSA; Staphylococcus aureus, MRSA, MRSA 741, Phase II, 1st, read-out: MIC
  MIC: 4 µg/mL (≈ 11.4 µM)
